How the values were obtained:
[1] = test system: Therminator γ DNA polymerase; assay: Quantitative real-time PCR analysis (fluorescence after each cycle, Ct standard curve); assay type: biochemical; conditions: for Sensitivity (Required PCR cycles for 1 copy number: Y-intercept): real-time PCR standard curve, a lower value means more sensitivity; for (Efficiency, %) [100 × (10^(−1/slope) − 1)]: real-time PCR, template 10 nM to 10 fM, 40 cycles, Max = 100%
Method: Total of 40 cycles of PCR was performed, wherein each cycle consists of 94° C. for 10 sec, 54° C. for 15 sec, and 72° C. for 10 sec. After each cycle was completed, fluorescence intensity was measured in real time by using StepOne real-time PCR system (ABI). […] Ct (threshold cycle) value was set up by determining the point at which the threshold encounters the polymerization curve. […] Analysis was performed under the PCR conditions, the equipment and the method identical to that of <example 4>.

Taq DNA polymerase = biological target: T1, Taq DNA polymerase (Thermus aquaticus, UniProt P19821); assay: Primer extension reaction with PAGE to search for a DNA polymerase able to use γF-dGTP as a substrate; assay type: biochemical; conditions: γF-dGTP 25 uM instead of dGTP; 5 cycles 94/46/60° C.; 20% denaturing PAGE, FIG. 3
T1 construct: purchased New England Biolabs
Method: (§1) In order to search DNA polymerase, primer extension reaction was performed.
(§2) More specifically, the mixed reaction solution was heated by repeating five times a cycle consisting of 20 sec at 94° C., 40 sec at 46° C., and 90 sec at 60° C.
For a control group experiment, Taq DNA polymerase reaction was performed by using dGTP in a natural state instead of γF-dGTP under the same conditions mentioned above.
(§3) After each polymerase reaction, the mixed reaction solution was developed (Vertical Gel Electrophoresis Unit, Sigma-Aldrich) by using 20% denaturing polyacrylamide gel electrophoresis (PAGE). As a result, an image of DNA fluorescence band was obtained by using scanner (Typhoon9400, GE healthcare).

Phi29 DNA polymerase = Phi29 DNA polymerase (Bacillus phage phi29, UniProt P03680); conditions: γF-dGTP 25 uM, 30° C. for 20 min, read every 20 sec; FIG. 6
Method: Real-time RCA (rolling circle amplification) analysis was performed by using 20 ul of mixed reaction solution comprising the primer having SEQ ID: 6 (5′-[…], 100 nM), the template chain having SEQ ID: 7 (5′-[…] […], 100 nM), dATP (25 uM, Promega), dCTP (25 uM, Promega), dTTP (25 uM, Promega), γF-dGTP (25 uM), BSA (100 μg/mL), Phi29 DNA polymerase reaction buffer (New England Biolabs), and Phi29 DNA polymerase. (6 units) The reaction was performed at 30° C. for 20 min and fluorescence intensity at every 20 sec was measured by the equipment used in <example 4>.

[2] = test system: Therminator γ DNA polymerase; assay: Primer extension reaction with PAGE to search for a DNA polymerase able to use γF-dGTP as a substrate; assay type: biochemical; conditions: γF-dGTP 25 uM instead of dGTP; 5 cycles 94/46/60° C.; 20% denaturing PAGE, FIG. 3
Method: as §1, §2, §3

Chain of Phi29 DNA polymerase (P03680 whole entry): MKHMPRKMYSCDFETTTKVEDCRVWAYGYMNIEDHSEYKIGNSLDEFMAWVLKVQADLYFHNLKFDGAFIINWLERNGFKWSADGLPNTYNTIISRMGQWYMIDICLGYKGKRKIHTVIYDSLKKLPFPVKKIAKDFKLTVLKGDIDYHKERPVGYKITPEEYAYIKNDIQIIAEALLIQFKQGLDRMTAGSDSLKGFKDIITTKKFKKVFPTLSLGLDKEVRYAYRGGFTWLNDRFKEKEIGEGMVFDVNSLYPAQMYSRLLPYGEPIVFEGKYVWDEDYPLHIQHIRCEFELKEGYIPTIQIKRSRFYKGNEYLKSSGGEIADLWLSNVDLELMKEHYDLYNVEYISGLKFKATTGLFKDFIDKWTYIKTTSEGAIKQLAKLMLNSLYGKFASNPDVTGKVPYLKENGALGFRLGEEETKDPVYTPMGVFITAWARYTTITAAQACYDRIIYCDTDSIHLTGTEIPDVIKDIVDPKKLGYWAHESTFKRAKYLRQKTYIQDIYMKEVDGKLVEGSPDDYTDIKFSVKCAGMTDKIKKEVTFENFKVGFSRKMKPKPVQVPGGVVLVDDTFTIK
T1 sequence (P19821 whole entry): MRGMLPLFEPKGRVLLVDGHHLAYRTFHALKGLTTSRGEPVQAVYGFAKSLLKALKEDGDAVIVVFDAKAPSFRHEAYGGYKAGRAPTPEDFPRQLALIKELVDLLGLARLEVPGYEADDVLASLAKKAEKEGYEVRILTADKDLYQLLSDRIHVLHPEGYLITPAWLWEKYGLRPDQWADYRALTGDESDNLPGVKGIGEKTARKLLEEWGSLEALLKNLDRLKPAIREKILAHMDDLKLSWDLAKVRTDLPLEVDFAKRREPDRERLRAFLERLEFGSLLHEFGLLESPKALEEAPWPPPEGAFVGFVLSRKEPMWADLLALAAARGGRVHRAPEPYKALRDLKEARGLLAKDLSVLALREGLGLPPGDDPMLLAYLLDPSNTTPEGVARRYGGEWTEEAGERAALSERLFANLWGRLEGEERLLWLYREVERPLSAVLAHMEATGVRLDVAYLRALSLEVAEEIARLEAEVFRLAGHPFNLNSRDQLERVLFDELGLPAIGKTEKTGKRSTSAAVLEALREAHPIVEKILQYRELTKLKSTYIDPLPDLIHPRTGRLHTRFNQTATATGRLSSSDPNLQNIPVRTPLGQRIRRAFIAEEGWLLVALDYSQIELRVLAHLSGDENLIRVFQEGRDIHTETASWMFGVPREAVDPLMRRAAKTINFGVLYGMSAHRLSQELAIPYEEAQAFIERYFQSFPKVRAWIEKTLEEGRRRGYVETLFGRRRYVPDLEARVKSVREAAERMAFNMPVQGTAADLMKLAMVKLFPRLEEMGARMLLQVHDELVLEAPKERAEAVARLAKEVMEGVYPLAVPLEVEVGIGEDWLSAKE

Compound	Sensitivity (Required PCR cycles for 1 copy number: Y-intercept) [1]	(Efficiency, %) [100 × (10^(−1/slope) − 1)] [1] [%]	Use as a substrate by the polymerase (fully extended polymerization product on PAGE) (Taq DNA polymerase)	Fluorescence intensity during real-time RCA (Phi29 DNA polymerase)	Use as a substrate by the polymerase (fully extended polymerization product on PAGE) [2]
CCCN(CCCN(C)C)c1cc(/C=C2/Sc3ccccc3N2C)c2ccccc2[n+]1-c1ccccc1 [SYBR green I, reference compound]	47.2	80.5	–	–	–
CC1=CC(C)=[N+]2C1=Cc1ccc(CCC(=O)NCCNP(=O)(O)OP(=O)(O)OP(=O)(O)OC[C@H]3O[C@@H](n4cnc5c(=O)[nH]c(N)nc54)C[C@@H]3O)n1[B-]2(F)F [γF-dGTP]	41.5	93.4	can use the modified nucleotide as a substrate	fluorescence intensity increases	can use the modified nucleotide as a substrate
